The values below come from US20250160330A1, “METHOD FOR CONTROLLING HARMFUL ARTHROPODS OR HARMFUL NEMATODES USING ZOANTHAMINE ANALOG” (SUMITOMO CHEMICAL COMPANY, LIMITED, priority 2022, published 2025).

Assay [1] has as its system cotton worm (Spodoptera litura). Description: Test method 2: foliar spray on cabbage seedling, cotton worm larvae. Format: in vivo. The settings on record: 144 h, read-out: mortality of insects. Here is the method:
(§1) Test compounds are made to a formulation according to a similar method to that described in the Formulation Example 5, and thereto is added water containing 0.03 v/v % of Shindain (registered trademark) to prepare a diluted solution containing a prescribed concentration of the test compound.
(§2) Cabbage (Brassicae oleracea) seedling (on the developmental stage of the third to fourth true leaf) is planted in a cup, and the diluted solutions are sprayed into the seedling at a ratio of 20 mL/seedling. Thereafter, ten (10) cotton worm (Spodoptera litura) at the third instar larval stage are released. After 6 days, the number of the surviving insects is counted, and the mortality of insects is calculated by the following equation.

Assay [2] has as its system western flower thrips (Frankliniella occidentalis). Briefly: Test method 5: sprayed cucumber leaf, western flower thrips larvae. The settings on record: 144 h, read-out: mortality of insects. Type of assay: in vivo. Here is the method: as §1
Cucumber (Cucumber sativus) seedling (on the developmental stage of the second true leaf) is planted in a cup, and the diluted solutions are sprayed into the seedling at a ratio of 10 mL/seedling. Thereafter, the second true leaf is cut, and the cut leaf was placed in the cup, and approximately twenty (20) of larvae of western flower thrips (Frankliniella occidentalis) larvae are released onto the leaf. After 6 days, the number of the surviving insects is examined and the mortality of insects is calculated by the following equation.

In assay [3] the test system is silverleaf whiteflies (Bemisia tabaci). Description: Test method 6: foliar spray on tomato seedling with silverleaf whitefly larvae. The settings on record: in Solanum lycopersicum, 168 h, read-out: mortality of insects.
Assay [4] deals with cotton worm (Spodoptera litura). Description: Test method 1: foliar spray on cabbage seedling, cotton worm larvae. Type of assay: in vivo. The settings on record: 144 h, read-out: mortality of insects. As to the method:
The test compounds are made to a formulation according to a similar method to that described in the Formulation Example 5, and thereto is added water containing 0.03 v/v % of Shindain (registered trademark) to prepare a diluted solution containing a prescribed concentration of the test compound.
as §2

Assay [5] deals with southern root-knot nematode (Meloidogyne incognita). Description: Test method 7: soil mixing and irrigation, tomato seedlings in nematode-polluted soil, root-knot index by Zeck. Type of assay: in vivo. The settings on record: 1,000 ppm. As to the method:
Test compounds 60 mg are dissolved in acetone 600 μL containing Tween (Registered trade mark) by 5%, and thereto is added water to prepare a diluted solution containing a prescribed concentration of the test compound.
The diluted solution 20 mL are soil which is polluted with southern root-knot nematode (Meloidogyne incognita) 400 mL are mixed, and a root of healthy tomato seedlings (on the developmental stage of third to fourth true leaf) is transplanted in the soil. After the transplanting, the diluted solution 40 mL is irrigated onto soli of tomato seedlings. After 10 days, the roots are pull out from the soil, washed and the damage degree of the root (root-knot degree) is examined according to a root-knot index by Zeck (Zeck, W. M. (1971): Pflanzenschutz-Nachrichten. Bayer AG, 24, 141-144).
• 0: No root-knots is recognized. • 1: By careful observation, several small root-knots can be recognized. • 2: Several small root-knots can be easily confirmed similarly to 1. • 3: Many small root-knots are found, and some of which are fused. A function of the root is not almost lost. • 4: Many small root-knots are found, and some large ones are found. […]

Assay [6] concerns northern house mosquitos (Culex pipiens pipiens). Description: Test method 8: coated container contact test, northern house mosquito female adults. Format: in vivo. The settings on record: 24 h, read-out: mortality of insects. As to the method: The test compounds are dissolved with acetone containing a surfactant, and the solution was then poured into a container of 20 mL contents, and the solution was coating uniformly in the inner face of the container such that the test compound is made 10 mg/m^2, and the surfactant is made 40 mg/m^2, and the container is dried.
Five (5) of female adult of northern house mosquitos (Culex pipiens pipiens) are placed in the contained, and the contained is put the lid. After the passing of the prescribed times, the state of the northern house mosquitos are examined, and the mortality is calculated by the following equation.

Assay [7] concerns brown planthoppers (Nilaparvata lugens). Briefly: Test method 4: foliar spray on rice seedling, brown planthopper larvae. Type of assay: in vivo. The settings on record: 144 h, read-out: mortality of insects. As to the method:
as §1
Rice (Oryza sativa) seedling (on the developmental stage of the second true leaf) is planted in a cup, and the diluted solutions are sprayed into the seedling at a ratio of 10 mL/seedling. Thereafter, twenty (20) of 3rd instar larvae of brown planthoppers (Nilaparvata lugens) are released onto the rice leaves. After 6 days, the number of the surviving insects is examined and the mortality of insects is calculated by the following equation.

For assay [8], the system named is cotton aphids (Aphis gossypii). Briefly: Test method 3: foliar spray on cucumber seedling infested with cotton aphids. The settings on record: read-out: mortality of insects.

Consider `CC1=CC(=O)[C@H]2CC(=O)[C@H]3[C@](C)([C@@H]2C1)[C@H](Cl)[C@@]12OC(=O)C[C@]3(C)[C@]1(C)CC[C@]13C[C@@H](C)C[C@H](CN12)O3` [AA-1], for which the mortality (commonly the percentage killed) at 200 ppm is at least 80% in assay [1]; at least 90% in assay [2]; at least 90% in assay [3]; at least 80% in assay [4]; at least 90% in assay [7]; at least 90% in assay [8]. In addition, the root-knot index in assay [5] (20 mL mixed with 400 mL soil plus 40 mL irrigation, tomato seedlings, after 10 days, untreated group index 4) was 1 (By careful observation, several small root-knots can be recognized.). In addition, the formation of root-knot result in assay [5] (versus untreated group) is given as “reduced a formation of root-knot”. Also, the mortality at 10 mg/m2 in assay [6] was at least 80%.
